Assay results from patent US10870638B2, “Pyridazinone compound or its salt, and herbicide containing it” (ISHIHARA SANGYO KAISHA, LTD., priority 2016, dated 2020).

Key:
Assay in all cases: Test Example 1: foliar treatment, growth inhibition rate on 14th day
Type in all cases: in vivo
Settings in all cases: active ingredient amount 31 g/ha, 14th day after application
[1] = system: italian ryegrass (Lolium multiflorum Lam.)
Source text: (§1) Upland field soil was put into a 1/300,000 hectare pot, and seeds of various plants were sown. When the respective plants reached predetermined leaf stage ((1) barnyardgrass (Echinochloa crus-[…].): 0.5 to 2.9 leaf stage, (2) crabgrass (Digitaria sanquinalis L.): 0.5 to 3.0 leaf stage, (3) green foxtail (Setaria viridis L.): 0.5 to 3.2 leaf stage, (4) wild oat (Avena fatua L.): 0.4 to 1.2 leaf stage, (5) italian ryegrass (Lolium multiflorum Lam.): 0.4 to 2.0 leaf stage, (6) redroot pigweed (Amaranthus retroflexus L.): cotyledon stage to 2.2 leaf stage, (7) rice (Oryza sativa L.): 0.2 to 2.7 leaf stage, (8) corn (Zea mays L.): 1.7 to 3.6 leaf stage, (9) wheat (Triticum aestivum L.): 1.3 to 2.3 leaf stage, (10) soybean (Glycine max Merr.); primary leaf stage), wettable powders or emulsifiable concentrates of the compounds of the present invention prepared in accordance with a conventional preparation method, were weighed so as to achieve the prescribed active ingredient amounts, and diluted with water in an amount corresponding to 1,000 liters per 1 hectare (containing 0.1 vol % of an agricultural spreader (surfactant WK manufactured by MARUWA BIOCHEMICAL Co., Ltd.)), and the spray solutions thus prepared were applied for foliar treatment by a small sprayer. On the 14th day after the application, the state of growth of the respective plants was visually observed, and the herbicidal effect was evaluated by a growth inhibition rate (%) of 0 (equivalent to the non-treated area) to 100 (complete kill).

[2] = system: wheat (Triticum aestivum L.)
Source text: as §1

[3] = system: barnyardgrass (Echinochloa crus-qalli L.)
Source text: as §1

[4] = system: crabgrass (Digitaria sanquinalis L.)
Source text: as §1

[5] = system: green foxtail (Setaria viridis L.)
Source text: as §1

[6] = system: rice (Oryza sativa L.)
Source text: as §1

[7] = system: wild oat (Avena fatua L.)
Source text: as §1

[8] = system: corn (Zea mays L.)
Source text: as §1

[9] = system: soybean (Glycine max Merr.)
Source text: as §1

[10] = system: redroot pigweed (Amaranthus retroflexus L.)
Source text: as §1

[11] = visual, 0 = non-treated, 100 = complete kill

SMILES	Growth inhibition rate (%) Italian ryegrass [1]	Growth inhibition rate (%) Wheat [2]	Growth inhibition rate (%) Barnyardgrass [3]	Growth inhibition rate (%) Crabgrass [4]	Growth inhibition rate (%) Green foxtail [5]	Growth inhibition rate (%) Rice [6]	Growth inhibition rate (%) Wild oat [7]	Growth inhibition rate (%) Corn [8]	Growth inhibition rate (%) Soybean [9]	Growth inhibition rate (%) Redroot pigweed [10]	Growth inhibition rate (%) Italian ryegrass [1, 11]	Growth inhibition rate (%) Wheat [2, 11]	Growth inhibition rate (%) Barnyardgrass [3, 11]	Growth inhibition rate (%) Crabgrass [4, 11]	Growth inhibition rate (%) Green foxtail [5, 11]	Growth inhibition rate (%) Rice [6, 11]	Growth inhibition rate (%) Wild oat [7, 11]	Growth inhibition rate (%) Corn [8, 11]	Growth inhibition rate (%) Soybean [9, 11]	Growth inhibition rate (%) Redroot pigweed [10, 11]
CC(=O)Oc1c(C)nn(C)c(=O)c1-c1cc(Nc2ncc(C(F)(F)F)cc2Cl)ccc1C [1-146]	70%	85%	98%	90%	93%	0%	88%	75%	10%	0%										
CC(=O)Oc1c(C)nn(C)c(=O)c1-c1cc(Oc2ncc(Cl)cn2)ccc1C [Compound 2-124]	0%	0%	85%	80%	80%	0%	0%	0%	0%	30%										
C#CCOc1c(C)nn(C)c(=O)c1-c1cc(Oc2cnc3cc(Cl)ccc3n2)ccc1C [Compound 3-77]											85%	25%	100%	90%	100%	0%	60%	30%	0%	0%
CC(=O)Oc1c(C(F)(F)F)nn(C)c(=O)c1-c1cc(Oc2ncc(C(F)(F)F)cc2Cl)ccc1C [1-142]	20%	20%	90%	88%	40%	15%	85%	50%	40%	20%										
CCCSC(=O)Oc1c(C)nn(C)c(=O)c1-c1cc(Oc2cnc3cc(Cl)ccc3n2)ccc1C [Compound 3-56]											98%	93%	98%	99%	100%	0%	99%	40%	30%	0%
Cc1ccc(Oc2cnc3cc(Cl)ccc3n2)cc1-c1c(OC(=O)OC2CC(C)CCC2C(C)C)c(C)nn(C)c1=O (stereo not shown) [Compound 3-61]											0%	0%	0%	20%	60%	0%	0%	20%	0%	0%
Cc1ccc(Oc2ncc(C#N)cc2Cl)cc1-c1c(O)c(C)nn(C)c1=O [Compound 2-2]	10%	0%	70%	70%	75%	0%	10%	10%	0%	20%										
CC(=O)Oc1c(C)nn(C)c(=O)c1-c1cc(Oc2ncc3cc(Br)ccc3n2)ccc1C [Compound 2-123]	0%	90%	90%	10%	83%	50%	10%	0%	0%	0%										
Cc1ccc(Oc2nc3ccc(Cl)cc3o2)cc1-c1c(O)cnn(CC(F)F)c1=O [Compound 2-179]	0%	10%	88%	98%	100%	0%	0%	75%	0%	0%										
Cc1ccc(Oc2ncc3cc(Br)ccc3n2)cc1-c1c(O)c(C)nn(C)c1=O [Compound 2-90]	10%	20%	90%	0%	75%	0%	0%	0%	0%	0%										
Cc1ccc(Oc2cnc3cc(Cl)ccc3n2)cc1-c1c(OC(=O)c2cn(C)nc2C)c(C)nn(C)c1=O [Compound 3-43]	98%	95%	100%	98%	100%	80%	98%	40%	10%	0%										
CC(=O)Oc1c(C)nn(C)c(=O)c1-c1cc(Oc2nc3ccc(C)cc3s2)ccc1C [Compound 2-152]	35%	75%	85%	20%	85%	78%	0%	0%	0%	0%										
Cc1ccc(Oc2nc3ccc(Cl)cc3o2)cc1-c1c(O)cnn(CC2CC2)c1=O [Compound 2-186]	0%	0%	90%	99%	99%	0%	25%	98%	15%	0%										
Cc1ccc(Oc2cnc3cc(Cl)ccc3n2)cc1-c1c(OS(=O)(=O)C2CC2)c(C)nn(C)c1=O [Compound 3-70]											40%	0%	98%	88%	98%	0%	60%	30%	10%	0%
Cc1ccc(Oc2cnc3cc(Cl)ccc3n2)cc1-c1c(OCOCCCl)c(C)nn(C)c1=O [Compound 3-81]											95%	25%	99%	93%	99%	0%	95%	0%	0%	0%
CCCCC(=O)Oc1c(C)nn(C)c(=O)c1-c1cc(Oc2ncc(C(F)(F)F)cc2Cl)ccc1C [1-135]	100%	100%	100%	99%	100%	90%	100%	98%	0%	0%										
